Source: patent US5444084A, “Substituted heterocyclic derivative having squalene epoxidase inhibition action and its use” (Banyu Pharmaceutical Co., Ltd., priority 1992, dated 1995)

Experiments:
cholesterol biosynthesis = assay: Inhibition test of in vivo cholesterol biosynthesis in rat; parameters: species or system rat (female SD); conditions: 3 mg/kg oral, n = 5, rat; for 14C-cholesterol, dpm: dpm of produced 14C-cholesterol in 1 ml of plasma, control values 2282-3218 dpm; for Cholesterol biosynthesis inhibition rate: versus control group
Protocol: Inhibition test of in vivo cholesterol biosynthesis
In this in vivo test, female SD rats (5 weeks old) are used. The rats are raised for 9 days under an environment where illumination is applied with reversed day and night (dark from 6 a.m. to 6 p.m.), and meanwhile they can freely ingest a solid feed and water. A test chemical is orally administered two hours before dark 6 o'clock when cholesterol biosynthesis becomes maximum. The compound is dissolved in a middle-chain fatty acid triglyceride, and orally administered at 3 mg/kg in an amount of 0.5 ml/100 g body weight. Further, the same volume of the solvent (vehicle) used is administered to control animals. […] after the administration of the test chemical, 20μ Ci/100 g body weight of ^14 C-sodium acetate (56 m Ci/m mole) is intraperitoneally administered to the rats, respectively. At dark 6 o'clock blood is sampled from the abdominal artery of each animal under ether anesthesia and centrifuged to separate the plasma.
2 ml of 15% potassium hydroxide-methanol solution is added per ml of the plasma, and the mixture is heated at 75° C. for 3 hours to carry out saponification. Each sample is extracted twice, each time with 2 ml of petroleum ether, and the extract is washed with 2 ml of distilled water. Finally each extract is evaporated to dryness under a nitrogen stream.
The resultant residue is dissolved in a small amount of ethyl ether, and a pre-coated silica gel TLC is spotted with the total amount of the solution. This plate is developed with a solvent system of hexane/ethyl ether/acetic acid (85:15:4). Coloring is carried out with iodine, and radioactivity at the cholesterol part is assayed using a liquid scintillation counter.
The results (Table 2) are expressed by dpm values of produced ^14 C-cholesterol existing in 1 ml of each plasma. Further, the inhibition of cholesterol biosynthesis is calculated by comparing the amounts of ^14 C-cholesterol biosynthesis between the test groups and the control group.

rats (SD male) = assay: Subacute toxicity test; assay type: in vivo, rat (SD male); conditions: 300 mg/kg per day oral for 7 days, 3 animals per group, 0.5% aqueous methylcellulose suspension
Protocol: Subacute toxicity test example
The compound of Example 34 was suspended in 0.5% aqueous methylcellulose solution and orally administered to groups of rats (SD male), each group consisting of 3 animals, at a rate of 300 mg/kg per day for 7 days.

Human squalene epoxidase = target: T1, Human squalene epoxidase (Homo sapiens, UniProt Q14534); assay: Human squalene epoxidase inhibition action; assay type: biochemical; conditions: solubilized Hep-G2 microsome fraction, 8 μM 3H-squalene, 37° C., 60 minutes, read-out: Inhibition rate at 3 μM concentration
T1 construct: The resultant supernatant is used as the squalene epoxidase fraction in the later-described test; endogenous in cells; host or cells: Hep-G2 human hepatoma cells (microsomes solubilized with Triton X-100)
Protocol: Squalene epoxidase inhibition action
(1) Preparation of squalene epoxidase
Human squalene epoxidase is prepared in accordance with the process disclosed in J. Biol. Chem., 245, 1670 (1970); ibid., 250, 1572 (1975).
Namely, human hepatoma (Hep-G2) cells are cultured at 37° C. under air containing 5% carbon dioxide. After completion of the culture, the cells are scraped and collected by centrifugation. The cells are suspended in 0.1M Tris-HCl buffer (pH 7.5) (1×10^8 cells/ml), the suspension is homogenized and centrifuged at 9750 Xg for 10 minutes, and then the sediment is washed with 0.1M Tris-HCl buffer (pH 7.5) and centrifuged at 105,000 Xg for 1 hour. The resultant microsome is suspended in 0.1M Tris-HCl buffer (pH 7.5) so that the protein amount becomes 20 mg/ml, and solubilized by stirring the suspension under ice cooling in the presence of 1% Triton X-100. After this solubilization treatment, the concentration of Triton X-100 is diluted to 0.125% with 1 mM EDTA and 1 mM dithiothreitol, and the dilution is centrifuged at 105,000 Xg for 1 hour. The resultant supernatant is used as the squalene epoxidase fraction in the later-described test.
(2) Assay of squalene epoxidase activity
Assay of human squalene epoxidase activity is carried out according to the method disclosed in J. Biol. Chem., 245, 1670 (1970).
Namely, 3 μl of a dimethyl sulfoxide solution of a test chemical is added to a solution consisting of 0.2 ml of the squalene epoxidase fraction [protein amount 0.4 mg, 0.1% Triton X-100, […] Tris-HCl buffer (pH 7.5)] prepared in (1), 100 μM FAD, 1 mM NADPH, 1 mM EDTA and 8 μM ^3 H-squalene-Tween 80 suspension to make the total volume 0.3 ml, and the mixture is subjected to reaction with shaking at 37° C. for 60 minutes. 0.3 ml of 10% potassium hydroxide-methanol solution is added to discontinue the reaction, and the mixture is heated at 75° C. for 1 hour. Then the non-saponified substance is extracted with petroleum ether and the extract is concentrated to dryness under a nitrogen stream. The resultant residue is dissolved in a small amount of ethyl ether, pre-coated Silicagel TCL is spotted with the extract, and development is carried out with benzeneethyl acetate (99.5:0.5). The position of the ^3 H-squalene-2,3 -epoxide in the TLC is confirmed using ergosterol acetate as a marker, and the ^3 H-squalene-2,3-epoxide portion in the TLC is cut out. The TLC piece is immersed in a toluene series scintillator and measurement is made using a liquid scintillation counter. Thereby, the inhibition rates (%) against squalene epoxidase at 3 μM concentration of compounds of this invention are determined, and the results are shown in the following Table 1.

T1 sequence (Q14534 whole entry): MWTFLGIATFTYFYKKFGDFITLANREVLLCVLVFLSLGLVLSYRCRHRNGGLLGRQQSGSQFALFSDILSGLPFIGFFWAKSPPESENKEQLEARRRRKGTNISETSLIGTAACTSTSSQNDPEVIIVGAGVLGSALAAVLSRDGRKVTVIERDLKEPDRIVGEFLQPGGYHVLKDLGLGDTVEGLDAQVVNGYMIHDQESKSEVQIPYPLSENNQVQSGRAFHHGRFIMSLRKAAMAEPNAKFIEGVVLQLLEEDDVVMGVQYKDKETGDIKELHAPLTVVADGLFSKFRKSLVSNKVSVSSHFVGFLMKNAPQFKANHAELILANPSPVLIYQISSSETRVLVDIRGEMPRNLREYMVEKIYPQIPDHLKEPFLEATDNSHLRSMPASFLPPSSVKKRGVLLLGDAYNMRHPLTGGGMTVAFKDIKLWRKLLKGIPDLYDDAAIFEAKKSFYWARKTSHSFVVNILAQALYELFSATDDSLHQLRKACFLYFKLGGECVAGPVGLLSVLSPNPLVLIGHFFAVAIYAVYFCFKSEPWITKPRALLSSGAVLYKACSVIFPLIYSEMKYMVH

Row | SMILES | inhibition at 3 µM (Human squalene epoxidase) [%] | 14C-cholesterol, dpm (cholesterol biosynthesis) [dpm] | Cholesterol biosynthesis inhibition rate (cholesterol biosynthesis) [%] | death and other toxic symptoms (rats (SD male))
1 | COCC(C/C=C/C#CC(C)(C)C)Cc1cccc(/C=C/c2cccc(-c3ccsc3)c2)c1 (stereo not drawn) [Example 34, (E,E)-3-[3-[2-[3-(2-methoxymethyl-8,8-dimethyl-4-nonen-6-ynyl)phenyl]ethenyl]phenyl]thiophene] | 100 | 347 | 85 | death and other toxic symptoms were not observed at all
2 | CC(C)(C)C#C/C=C/C/C(=C\c1cccc(OCc2cc(-c3ccsc3)cs2)c1)CO [Example 5, (E,E)-2-(6,6-dimethyl-2-hepten-4-ynyl)-3-[3-[4-(3-thienyl)-2-thienylmethoxy]phenyl]-2-propen-1-ol] | 100 | – | – | –
3 | COC/C(=C/CCC/C=C/c1cccc(-c2ccsc2)c1)C/C=C/C#CC(C)(C)C [Example 29, (E,E,E)-3-[3-(7-methoxymethyl-13,13-dimethyltetradeca-1,6,9-trien-11-ynyl)phenyl]thiophene] | 100 | – | – | –
4 | COC/C(=C/CCCCOc1cccc(-c2ccsc2)c1)C/C=C/C#CC(C)(C)C [Example 30, (E,E)-3-[3-(6-methoxymethyl-12,12-dimethyltrideca-5,8-dien-10-ynyloxy)phenyl]thiophene] | 100 | – | – | –
5 | C/C(=C/CCC/C=C/c1cccc(-c2ccsc2)c1)C/C=C/C#CC(C)(C)C [Example 18, 3-[3-[(1E,6Z,9E)-7,13,13-trimethyltetradeca-1,6,9-trien-11-ynyl]phenyl]thiophene] | 99 | – | – | –
6 | CC(C)(C)C#C/C=C/C/C(=C\CCC/C=C/c1cccc(-c2ccsc2)c1)CO [Example 1] | 100 | 275 | 91 | –
7 | CSC/C(=C/CCCCOc1cccc(-c2ccsc2)c1)C/C=C/C#CC(C)(C)C [Example 42, (E,E)-3-[3-(12,12-dimethyl-6-methylthiomethyltrideca-5,8-dien-10-ynyloxy)phenyl]thiophene] | 100 | – | – | –
8 | COC/C(=C/c1cccc(OCc2cc(-c3ccsc3)cs2)c1)C/C=C/C#CC(C)(C)C [Example 33, (E,E)-2-[3-(2-methoxymethyl-8,8-dimethylnona-1,4-dien-6-ynyl)phenoxymethyl]-4-(3-thienyl)thiophene] | 100 | – | – | –
9 | CC(C)(C)C#C/C=C/CC(CO)Cc1cccc(OCc2cccc(-c3ccsc3)c2)c1 (stereo not drawn) [Example 11, (E)-2-(6,6-dimethyl-2-hepten-4-ynyl)-3-[3-[3-(3-thienyl)phenylmethoxy]phenyl]propanol] | 88 | – | – | –
10 | COCC(C/C=C/C#CC(C)(C)C)Cc1cccc(OCc2cccc(-c3ccsc3)c2)c1 (stereo not drawn) [Example 32, (E)-3-[3-[3-(2-methoxymethyl-8,8-dimethyl-4-nonen-6-ynyl)phenoxymethyl]phenyl]thiophene] | 100 | – | – | –
11 | C/C(=C/c1cccc(OCc2cc(-c3ccsc3)cs2)c1)C/C=C/C#CC(C)(C)C [Example 22, 2-[3-[(1Z,4E)-2,8,8-trimethylnona-1,4-dien-6-ynyl]phenoxymethyl]-4-(3-thienyl)thiophene] | 100 | – | – | –
12 | CC(C)(C)C#C/C=C/C/C(=C\CCCCOc1cccc(-c2ccsc2)c1)CO [Example 2, (E,E)-2-(6,6-dimethyl-2-hepten-4-ynyl)-7-[3-(3-thienyl)phenoxy]-2-hepten-1-ol] | 100 | – | – | –

Second part, led by results:

Row | inhibition at 3 µM (Human squalene epoxidase) [%] | SMILES | 14C-cholesterol, dpm (cholesterol biosynthesis) [dpm] | Cholesterol biosynthesis inhibition rate (cholesterol biosynthesis) [%] | death and other toxic symptoms (rats (SD male))
13 | 100 | CC(C)(C)C#C/C=C/CC(CO)Cc1cccc(/C=C/c2cccc(-c3ccsc3)c2)c1 (stereo not drawn) [Example 12, (E,E)-2-(6,6-dimethyl-2-hepten-4-ynyl)-3-[3-[2-[3-(3-thienyl)phenyl]ethenyl]phenyl]propanol] | 1208 | 61 | –
14 | 100 | C/C(=C/c1cccc(/C=C/c2cccc(-c3ccsc3)c2)c1)C/C=C/C#CC(C)(C)C [Example 23, 3-[3-[2-[3-[(1Z,4E)-2,8,8-trimethylnona-1,4-dien-6-ynyl]phenyl]ethenyl]phenyl]thiophene] | – | – | –
15 | 100 | CC(C)(C)C#C/C=C/C/C(=C\c1cccc(COc2cccc(-c3ccsc3)c2)c1)CO [Example 4, (E,E)-2-(6,6-dimethyl-2-hepten-4-ynyl)-3-[3-[3-(3-thienyl)phenoxymethyl]phenyl]-2-propen-1-ol] | – | – | –
16 | 100 | CC(C)(C)C#C/C=C/C/C(=C\c1cccc(/C=C/c2cccc(-c3ccsc3)c2)c1)CO [Example 6, (E,E,E)-2-(6,6-dimethyl-2-hepten-4-ynyl)-3-[3-[2-[3-(3-thienyl)phenyl]ethenyl]phenyl]-2-propen-1-ol] | 871 | 73 | –
17 | 100 | C/C(=C/c1cccc(COc2cccc(-c3ccsc3)c2)c1)C/C=C/C#CC(C)(C)C [Example 21, 3-[3-[3-[(1Z,4E)-2,8,8-trimethylnona-1,4-dien-6-ynyl]phenylmethoxy]phenyl]thiophene] | – | – | –
18 | 100 | COC(C)(C)C#CC#CC/C(=C\c1cccc(/C=C/c2cccc(-c3ccsc3)c2)c1)CO [Example 10, (E,E)-2-(6-methoxy-6-methyl-2,4-heptadiynyl)-3-[3-[2-[3-(3-thienyl)phenyl]ethenyl]phenyl]-2-propen-1-ol] | – | – | –
19 | 100 | CC(O)C(C/C=C/C#CC(C)(C)C)Cc1cccc(/C=C/c2cccc(-c3ccsc3)c2)c1 (stereo not drawn) [Example 43, (E,E)-3-(6,6-dimethyl-2-hepten-4-ynyl)-4-[3-[2-[3-(3-thienyl)phenyl]ethenyl]phenyl]-2-butanol] | – | – | –
20 | 100 | C=CC(C/C=C/C#CC(C)(C)C)Cc1cccc(/C=C/c2cccc(-c3ccsc3)c2)c1 (stereo not drawn) [Example 44] | – | – | –
21 | 100 | COC/C(=C/c1cccc(CCc2cccc(-c3ccsc3)c2)c1)C/C=C/C#CC(C)(C)C [Example 38, (E,E)-3-[3-[2-[3-(2-methoxymethyl-8,8-dimethylnona-1,4-dien-6-ynyl)phenyl]ethyl]phenyl]thiophene] | 350 | 85 | –
22 | 100 | COC(C)(C)C#C/C=C/C/C(=C\c1cccc(/C=C/c2cccc(-c3ccsc3)c2)c1)CO [Example 8, (E,E,E)-2-(6-methoxy-6-methyl-2-hepten-4-ynyl)-3-[3-[2-[3-(3-thienyl)phenyl]ethenyl]phenyl]-2-propen-1-ol] | – | – | –
